Assay results published in PubChem BioAssay (NCI).
“And” between values parts separate entries of the source, which are not always exact repeats. Identical values can stand only once.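 Grown in 96-well plates, cells were treated for 48 hours with each compound at five concentrations. Insufficient inhibition: endpoint recorded as highest concentration tested. GI50 is the concentration that inhibits growth by half. TGI denotes the concentration required for complete inhibition of growth.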

What was measured:
Assay in all cases: NCI tumour cell line growth inhibition, 48 h
HT29 colon = test system: HT29 colon
NCI-H226 lung = test system: NCI-H226 lung
HOP-92 NSCLC = test system: HOP-92 NSCLC
NCI-H23 lung = test system: NCI-H23 lung
UACC-257 melanoma = test system: UACC-257 melanoma
SN12C renal = test system: SN12C renal
EKVX NSCLC = test system: EKVX NSCLC
COLO 205 colon = test system: COLO 205 colon
SR leukemia = test system: SR leukemia
MDA-MB-435 = test system: MDA-MB-435

Question: For `COc1cc2c(Oc3ccc(-c4cnc(Nc5ccc(F)cc5)n(C)c4=O)cc3F)ccnc2cc1OCCCN1CCOCC1`, which GI50 (HT29 colon) is on record?
Answer: Its GI50 is 0.311 µM.

Question: And the TGI (HT29 colon)?
Answer: The TGI was 1.64 µM.

Question: And the GI50 (NCI-H226 lung)?
Answer: Its GI50 is 1.16 µM.

Question: And the TGI (NCI-H226 lung)?
Answer: The TGI was 8.15 µM.

Question: And the GI50 (HOP-92 NSCLC)?
Answer: The GI50 was 0.083 µM.

Question: What about the TGI (HOP-92 NSCLC) of the same compound?
Answer: Its TGI is 1.01 µM.

Question: What about the GI50 (NCI-H23 lung) of the same compound?
Answer: The GI50 was 1.15 µM.

Question: And the TGI (NCI-H23 lung)?
Answer: Its TGI is 2.75 µM.

Question: What about the GI50 (UACC-257 melanoma) of the same compound?
Answer: The GI50 was 1.1 µM.

Question: And the TGI (UACC-257 melanoma)?
Answer: The TGI was 2.6 µM.

Question: And the GI50 (SN12C renal)?
Answer: Its GI50 is 0.528 µM.

Question: And the TGI (SN12C renal)?
Answer: The TGI was 2.27 µM.

Question: Which TGI (HT29 colon) does the source give for `Nc1ccccc1C(=O)/C=C/c1ccccc1O` here?
Answer: The TGI was > 100 µM.

Question: What about the TGI (NCI-H226 lung) of the same compound?
Answer: The TGI was > 100 µM.

Question: And the TGI (HOP-92 NSCLC)?
Answer: The TGI was 81.6 µM.

Question: And the TGI (EKVX NSCLC)?
Answer: The TGI was > 100 µM.

Question: And the TGI (NCI-H23 lung)?
Answer: Its TGI is > 100 µM.

Question: What about the TGI (UACC-257 melanoma) of the same compound?
Answer: The TGI was 53 µM.

Question: And the TGI (COLO 205 colon)?
Answer: The TGI was > 100 µM.

Question: And the TGI (SN12C renal)?
Answer: Its TGI is > 100 µM.

Question: Which results are given for `CC(C)(C)C1CCC(O)(c2ccccc2)CC1` (stereo unspecified)?
Answer: TGI (HT29 colon): > 100 µM and 30.2 µM; TGI (NCI-H226 lung): > 100 µM and 43 µM; TGI (EKVX NSCLC): > 100 µM and 75.3 µM; TGI (SR leukemia): > 100 µM and 33 µM; TGI (NCI-H23 lung): > 100 µM; TGI (UACC-257 melanoma): > 100 µM and 48.2 µM; TGI (COLO 205 colon): > 100 µM and 31.7 µM; TGI (SN12C renal): > 100 µM and 34.7 µM

Question: How did the TGI (HT29 colon) turn out when `CN1S(=O)(=O)N(C)P12(N=P(CP(=NP13(N(C)S(=O)(=O)N1C)N(C)S(=O)(=O)N3C)(c1ccccc1)c1ccccc1)(c1ccccc1)c1ccccc1)N(C)S(=O)(=O)N2C` was run?
Answer: Its TGI is > 100 µM.

Question: And the TGI (NCI-H226 lung)?
Answer: Its TGI is > 100 µM.

Question: What about the TGI (HOP-92 NSCLC) of the same compound?
Answer: The TGI was > 100 µM.

Question: What about the TGI (EKVX NSCLC) of the same compound?
Answer: The TGI was > 100 µM.

Question: And the TGI (NCI-H23 lung)?
Answer: Its TGI is > 100 µM.

Question: What about the TGI (UACC-257 melanoma) of the same compound?
Answer: Its TGI is > 100 µM.

Question: And the TGI (COLO 205 colon)?
Answer: The TGI was > 100 µM.

Question: What about the TGI (SN12C renal) of the same compound?
Answer: Its TGI is > 100 µM.

Question: How did the GI50 (HT29 colon) turn out when `O=C1NC(=O)N(S(=O)(=O)c2cc(C(=O)Nc3ccc(Cl)cc3)c(Cl)cc2S)S(=O)(=O)N1` was run?
Answer: Its GI50 is 23.8 µM.

Question: And the TGI (HT29 colon)?
Answer: The TGI was > 100 µM.

Question: What about the GI50 (NCI-H226 lung) of the same compound?
Answer: The GI50 was 22.2 µM.

Question: And the TGI (NCI-H226 lung)?
Answer: The TGI was 56.1 µM.

Question: And the GI50 (HOP-92 NSCLC)?
Answer: The GI50 was 12.9 µM.

Question: And the TGI (HOP-92 NSCLC)?
Answer: The TGI was 44.3 µM.

Question: What about the GI50 (EKVX NSCLC) of the same compound?
Answer: Its GI50 is 18.3 µM.

Question: What about the TGI (EKVX NSCLC) of the same compound?
Answer: Its TGI is 38.9 µM.

Question: What about the GI50 (NCI-H23 lung) of the same compound?
Answer: The GI50 was 18.5 µM.

Question: And the TGI (NCI-H23 lung)?
Answer: The TGI was 34.3 µM.

Question: And the GI50 (UACC-257 melanoma)?
Answer: The GI50 was 17.5 µM.

Question: What about the TGI (UACC-257 melanoma) of the same compound?
Answer: Its TGI is 37.1 µM.

Question: What about the GI50 (COLO 205 colon) of the same compound?
Answer: Its GI50 is 11 µM.

Question: And the TGI (COLO 205 colon)?
Answer: The TGI was > 100 µM.

Question: And the GI50 (SN12C renal)?
Answer: Its GI50 is 21.9 µM.

Question: And the TGI (SN12C renal)?
Answer: Its TGI is 50.2 µM.

Question: What about the GI50 (MDA-MB-435) of the same compound?
Answer: The GI50 was 18.5 µM.

Question: What about the TGI (MDA-MB-435) of the same compound?
Answer: Its TGI is 34.3 µM.

Question: Which GI50 (HT29 colon) does the source give for `Oc1c(Br)cc(Cl)cc1C(c1cc(Cl)cc(Br)c1O)C(Cl)(Cl)Cl` here?
Answer: The GI50 was 3.26 µM.

Question: What about the TGI (HT29 colon) of the same compound?
Answer: The TGI was 10.6 µM.

Question: What about the GI50 (NCI-H226 lung) of the same compound?
Answer: Its GI50 is 2.72 µM.

Question: And the TGI (NCI-H226 lung)?
Answer: The TGI was 8.61 µM.

Question: And the GI50 (HOP-92 NSCLC)?
Answer: The GI50 was 0.457 µM.

Question: What about the TGI (HOP-92 NSCLC) of the same compound?
Answer: Its TGI is 2.48 µM.

Question: And the GI50 (EKVX NSCLC)?
Answer: The GI50 was 2.72 µM.

Question: What about the TGI (EKVX NSCLC) of the same compound?
Answer: The TGI was 11.3 µM.

Question: What about the GI50 (NCI-H23 lung) of the same compound?
Answer: The GI50 was 1.8 µM.

Question: And the TGI (NCI-H23 lung)?
Answer: Its TGI is 7.01 µM.

Question: And the GI50 (UACC-257 melanoma)?
Answer: Its GI50 is 2.33 µM.

Question: What about the TGI (UACC-257 melanoma) of the same compound?
Answer: Its TGI is 6.57 µM.

Question: What about the GI50 (COLO 205 colon) of the same compound?
Answer: The GI50 was 1.87 µM.

Question: And the TGI (COLO 205 colon)?
Answer: Its TGI is 3.51 µM.

Question: And the GI50 (SN12C renal)?
Answer: The GI50 was 2.1 µM.

Question: And the TGI (SN12C renal)?
Answer: The TGI was 11.8 µM.

Question: What about the GI50 (MDA-MB-435) of the same compound?
Answer: The GI50 was 2.94 µM.

Question: What about the TGI (MDA-MB-435) of the same compound?
Answer: The TGI was 10.1 µM.

Question: Which results are given for `CCOC(=O)C1(C)CCC(C(=O)OC)C1=O` (stereo unspecified)?
Answer: TGI (HT29 colon): > 100 µM; TGI (NCI-H226 lung): > 100 µM; TGI (HOP-92 NSCLC): > 100 µM; TGI (EKVX NSCLC): > 100 µM; TGI (SR leukemia): 51 µM; TGI (NCI-H23 lung): > 100 µM; TGI (UACC-257 melanoma): > 100 µM; TGI (COLO 205 colon): > 100 µM; TGI (SN12C renal): > 100 µM

Question: For `O=C1Nc2ccc(Cl)cc2/C1=N/c1nc(-c2ccc(Cl)cc2)cs1`, which GI50 (HT29 colon) is on record?
Answer: The GI50 was 1.87 µM.

Question: What about the TGI (HT29 colon) of the same compound?
Answer: Its TGI is 5.34 µM.

Question: And the GI50 (SR leukemia)?
Answer: The GI50 was 2.74 µM.

Question: What about the TGI (SR leukemia) of the same compound?
Answer: The TGI was > 100 µM.

Question: What about the GI50 (COLO 205 colon) of the same compound?
Answer: The GI50 was 1.69 µM.

Question: And the TGI (COLO 205 colon)?
Answer: The TGI was 4.18 µM.

Question: What does the source list for `O=c1c2cc(Br)ccc2nc(CNc2ccccc2)n1-c1ccccc1`?
Answer: TGI (HT29 colon): 46.2 µM; TGI (NCI-H226 lung): 43.9 µM; TGI (HOP-92 NSCLC): 37.8 µM; TGI (EKVX NSCLC): 40.7 µM; TGI (SR leukemia): > 30.4 µM; TGI (NCI-H23 lung): 34.1 µM; TGI (UACC-257 melanoma): 98 µM; TGI (COLO 205 colon): 31.2 µM; TGI (SN12C renal): 29 µM
